Assays:
[1] = test system: primary mouse bone marrow-derived macrophages (BMMs); assay: Pit assay on Corning Osteo Surface, BMM-derived osteoclasts; format: cell-based; settings: M-CSF, sRANKL, 7 days, FIG. 1B
Experimental: FIGS. 1A-1D are data collected from primary mouse bone marrow-derived macrophages (BMMs) respectively incubated in the medium containing the soluble recombinant RANKL (sRANKL, 50 ng/ml), macrophage colony-stimulating factor (M-CSF, 40 ng/ml) and specified concentrations of MLN4924 for 7 days according to example 1.1 of the present disclosure. FIG. 1A: the photographs of TRAP staining depicting the differentiation of osteoclasts from BMMs. FIG. 1B: after the differentiation of osteoclasts in Corning Osteo Surface (a synthetic 3-dimensional structure that mimics in vivo bone for in vitro bone cell assays), the cells were removed, and the resorbed areas for confirming osteoclast activity were analyzed by 1% toluidine blue staining. FIG. 1C: the culture medium is subject to Biovision Cathepsin K Activity Fluorometric Assay Kit for the analysis of cathepsin K activity. FIG. 1D: the effect of effective doses of MLN4924 on the viability of BMMs is evaluated by MTT assay. Scale bar represents 100 μm. Data are expressed as mean±SD where *p<0.05; **p<0.01.
The pre-osteoclasts and RAW264.7 cells were seeded into Corning Osteo Surface Assay 96-wells plate (Corning, Kennebunk, Me.). […]
The effect of MLN4924 on the activity of osteoclast was then confirmed by pit assay. […] The resorbing areas on bone matrix by osteoclasts were visualized by 1% toluidine blue staining and quantified by image software.

[2] = test system: NFATc-1; assay: Western blot, sRANKL-induced NFATc-1 expression in RAW264.7 cells; format: cell-based, mouse; settings: RAW264.7, 30 min pre-treatment, sRANKL 50 ng/ml, FIG. 3C-3D
Experimental: FIGS. 3A-3D are data collected from Western blot analysis that respectively depict the expression of specified protein extracted from the RAW264.7 cells, which are pre-treated with specified concentrations of MLN4924 for 30 minutes followed by the stimulation of sRANKL (50 ng/ml) according to example 2 of the present disclosure. FIG. 3A: the time course effect of MLN4924 on the phosphorylations of ERK (pERK), P38 (pP38) and JNK (pJNK). FIG. 3B: the dose effect of MLN4924 on the phosphorylations of ERK (pERK), P38 (pP38) and JNK (pJNK). FIG. 3C: the time course effect of MLN4924 on the expression of NFATc-1. FIG. 3D: the dose effect of MLN4924 on the expression of NFATc-1. Mock: untreated control; R: sRANKL; M: MLN4924.
The RAW264.7 cells were starved with serum-free medium for six hours and then treated with the specified treatments. At indicated time points, the cells were washed with cold phosphate-buffered saline (PBS) and lysed in RIPA buffer containing complete protease inhibitor cocktail (Roche). The cell lysates were separated by SDS-PAGE followed by Western blotting with the indicated antibodies, including NEDD8, APPBP1, UBA3.
In addition, ectopic expression of NFATc-1 in the pre-osteoclasts rendered the pre-osteoclast differentiated to osteoclasts in the absence of RANKL. […]

[3] = test system: ovariectomized (OVX) mice; assay: Ovariectomy + sRANKL osteoporosis mouse model, micro-CT of distal femur; format: in vivo; settings: 10 mg/kg i.p. once daily for 2 weeks
Experimental: (§1) FIGS. 6A-6E are the data depicting the mouse model of ovariectomy-induced osteoporosis, in which the ovariectomized (OVX) mice are respectively treated with sRANKL (1 mg/Kg) in the absence or presence of MLN4924 (10 mg/Kg) according to example 5.1 of the present disclosure. FIG. 6A: Micro computed-tomography (micro-CT) three-dimensional images of the distal femurs of mice respectively treated with the indicated treatments, in which the left panels represent transaxial plane, and the right panels represent coronal plane. FIGS. 6B-6D: micro-CT measurement of trabecular bone parameters, including bone volume/total volume (FIG. 6B), trabecular number (FIG. 6C), and trabecular space (FIG. 6D). FIG. 6E: Serum level of C-telopeptide of type 1 collagen (CTX-1) in control, OVX, OVX+sRANKL, and OVX+sRANKL+MLN4924 groups. Values are expressed as mean±SD, N=6 per group. *p<0.05; **p<0.01.
All experimental procedures were approved by the Institutional Animal Care and Use Committee of the Chang Gung Memorial Hospital at Chiayi and complied with the Guideline for the Care and Use of Laboratory Animals available through the National Academy of Sciences (IACUC number: 2013100102 and 2015103001). All efforts were made to minimize the suffering of the animals. C57BL/6J female mice (6-8 weeks old; obtained from BioLasco in Taiwan) were operated ovariectomy surgery (OVX). 48 hours later of OVX operation, sRANKL (1 mg/kg) or saline was injected intraperitoneally once daily for two days followed by intraperitoneal injection of MLN4924 (10 mg/kg) once daily for 2 weeks. Mice were sacrificed with CO2 asphyxiation, and the tibias and femurs were isolated therefrom. The tibias were subject to histochemistry assay, and the femurs were subject to bending test and tomographic analysis by MTS (Testresources, Shakopee, Minn.) and Skyscan 1272 (Bruker, Kontich, Belgium), respectively. Serum levels of cross linked C-telopeptide of type I collagen (CTX-1) (CEA665Mu) was measured by specific ELISA kit (USCN life science incorporation, Wuhan, Hubei, China).
The mice were first treated with specified treatments before subjecting to micro-computed tomography (pCT).
The effect of MLN4924 on trabecular bone parameters, including the bone volume/total tissue volume, trabecular number, and trabecular space in bone loss mice were then investigated, and results are presented in FIGS. 6B to 6D.

[4] = test system: ovariectomized (OVX) mice; assay: Serum CTX-1 ELISA in OVX + sRANKL mice; format: in vivo, mouse; settings: 10 mg/kg i.p. once daily for 2 weeks, FIG. 6E
Experimental: as §1, with “FIG. 6E: Serum level of C-telopeptide of type 1 collagen (CTX-1) in control, OVX, OVX+sRANKL, and OVX+sRANKL+MLN4924 groups.” left out
All experimental procedures were approved by the Institutional Animal Care and Use Committee of the Chang Gung Memorial Hospital at Chiayi and complied with the Guideline for the Care and Use of Laboratory Animals available through the National Academy of Sciences (IACUC number: 2013100102 and 2015103001). […] Serum levels of cross linked C-telopeptide of type I collagen (CTX-1) (CEA665Mu) was measured by specific ELISA kit (USCN life science incorporation, Wuhan, Hubei, China).
Since CTX-1 serve as the biomarker for bone resorption, the level of CTX-1 in the serum of mice receiving specified treatments were then determined.

Question: With `NS(=O)(=O)OC[C@@H]1C[C@@H](n2ccc3c(N[C@H]4CCc5ccccc54)ncnc32)C[C@@H]1O` [MLN4924, (1S,2S,4R)-4-(4-((1S)-2,3-Dihydro-1H-inden-1-ylamino)-7H-pyrrolo(2,3-d)pyrimidin-7-yl)-2-hydroxycyclopentyl) methyl sulphamate] as the compound, how does the “resorbing activity of osteoclasts (pit assay, toluidine blue)” value [1] read?
Answer: suppressed the resorbing activity of osteoclasts in a dose-dependent manner

Question: And the “expression of NFATc-1 induced by sRANKL” value [2]?
Answer: significant suppressed

Question: What about the “trabecular bone loss at distal femoral metaphysis (micro-CT images)” value ([3]; FIG. 6A) of the same compound?
Answer: could rescue the trabecular bone loss caused by OVX+sRANKL treatment

Question: And the “bone volume/total tissue volume” value ([3]; vs OVX+sRANKL group, FIG. 6B)?
Answer: significantly rescued the sRANKL-mediated trabecular bone loss

Question: What about the trabecular number ([3]; vs OVX+sRANKL group, FIG. 6C) of the same compound?
Answer: significantly rescued the sRANKL-mediated trabecular bone loss

Question: What about the trabecular space ([3]; vs OVX+sRANKL group, FIG. 6D) of the same compound?
Answer: significantly rescued the sRANKL-mediated trabecular bone loss

Question: What about the “serum CTX-1 level” value [4] of the same compound?
Answer: significantly rescued the OVX+sRANKL-stimulated serum CTX-1 level upregulation

— patent US10285994B2, “Method of preventing or treating osteoporosis by neddylation inhibitor” (Chang Gung University, priority 2017, dated 2019)
